We go through 5 molecules from paper PMC11950852, “Diversity Scale of Library Matters: Impact of mRNA Library Diversity Scales on the Discovery of Macrocyclic Peptides Targeting a Protein by the RaPID System” (ACS Central Science, 2025).

The target in this test is Fc-fused MET (His-/hFc-tagged human MET ectodomain) (Homo sapiens, UniProt P08581). As to the kind of experiment: SPR binding kinetics of selected macrocyclic peptides to Fc-fused MET. The note with it: for kon: pH 7.4, read-out: ka.

As usually defined, the Kd is the free concentration of one partner at which half of the binding sites on the other are occupied at equilibrium, for simple one-to-one binding. High values mean lower affinity, low ones higher affinity.

Where a SMILES comes first, the peptide text is derived from it. Bridges are numbered along the chain shown (N, C = ends).

In the case of `C[C@@H]1NC(=O)CNC(=O)[C@H](Cc2ccc(O)cc2)NC(=O)[C@H](CCC(=O)O)NC(=O)[C@H](CCCCN)NC(=O)[C@H](Cc2c[nH]c3ccccc23)NC(=O)[C@H](CCCNC(=N)N)NC(=O)CNC(=O)[C@H](CC(=O)O)NC(=O)[C@H](Cc2ccccc2)NC(=O)[C@H]([C@@H](C)O)NC(=O)[C@H](Cc2ccc(O)cc2)NC(=O)[C@H](Cc2ccc(O)cc2)NC(=O)[C@H](Cc2c[nH]c3ccccc23)NC(=O)[C@H](Cc2ccc(O)cc2)NC(=O)CSC[C@@H](C(=O)NCC(N)=O)NC(=O)[C@H](C)NC1=O` [8-1] ({CH2CO}-YWYYTFDGRWKEYGAACG-NH2; thioether N-17), the kon came to 1.38e+06 M⁻¹ s⁻¹. This molecule registered a Kd (KD, SPR conditions as E1, 1:1 binding model) of 31 nM. Under “SPR conditions as E1”, the “ka” value is reported as 13.8 × 10^5 M^–1 s^–1, the kd was found to be 0.0427 s⁻¹ and the “kd (quoted in text)” value is given as 42.7 × 10^–3 s^–1.

For `CC(C)[C@@H]1NC(=O)[C@H](CC(N)=O)NC(=O)CNC(=O)[C@H](CO)NC(=O)[C@H](Cc2c[nH]c3ccccc23)NC(=O)[C@H](CO)NC(=O)[C@H](Cc2ccc(O)cc2)NC(=O)[C@H](Cc2ccc(O)cc2)NC(=O)CSC[C@@H](C(=O)NCC(N)=O)NC(=O)[C@H](CO)NC(=O)[C@H](CC(N)=O)NC(=O)[C@H](Cc2c[nH]c3ccccc23)NC(=O)[C@H](CCCCN)NC(=O)[C@H](C(C)C)NC(=O)[C@H](CO)NC(=O)[C@H](CCC(=O)O)NC(=O)[C@H](CO)NC1=O` [12-2] ({CH2CO}-YYSWSGNVSESVKWNSCG-NH2; thioether N-17), the kon is 476000 M⁻¹ s⁻¹. Where the note is “SPR conditions as E1”, this molecule displayed a kd of 0.00413 s⁻¹.

As to `CC(C)C[C@@H]1NC(=O)[C@H](CO)NC(=O)[C@H](Cc2c[nH]c3ccccc23)NC(=O)[C@H](CC(N)=O)NC(=O)[C@H](CCCCN)NC(=O)[C@H](CO)NC(=O)[C@H](CC(=O)O)NC(=O)[C@H](Cc2ccccc2)NC(=O)[C@H](CCC(=O)O)NC(=O)[C@H](CO)NC(=O)[C@H](Cc2c[nH]c3ccccc23)NC(=O)[C@H](CO)NC(=O)[C@H](CC(C)C)NC(=O)[C@H](Cc2ccc(O)cc2)NC(=O)CSC[C@@H](C(=O)NCC(N)=O)NC(=O)[C@H](Cc2ccc(O)cc2)NC(=O)[C@H](C)NC1=O` [14-3] ({CH2CO}-YLSWSEFDSKNWSLAYCG-NH2; thioether N-17), the kon was determined as 84900 M⁻¹ s⁻¹. For the same molecule, the kd (SPR conditions as E1) amounted to 0.00297 s⁻¹.

As to `CC[C@H](C)[C@@H]1NC(=O)[C@H](C(C)C)NC(=O)[C@H](Cc2c[nH]c3ccccc23)NC(=O)[C@H](CC(=O)O)NC(=O)[C@H](CO)NC(=O)[C@H](CO)NC(=O)[C@H](CC(=O)O)NC(=O)[C@H](Cc2ccc(O)cc2)NC(=O)[C@H](Cc2ccc(O)cc2)NC(=O)[C@H](CCCCN)NC(=O)[C@H](Cc2c[nH]c3ccccc23)NC(=O)[C@H](CO)NC(=O)[C@H](CC(C)C)NC(=O)[C@H](Cc2ccc(O)cc2)NC(=O)CSC[C@@H](C(=O)NCC(N)=O)NC(=O)[C@H](CO)NC(=O)[C@H](CC(C)C)NC1=O` [14-5] ({CH2CO}-YLSWKYYDSSDWVILSCG-NH2; thioether N-17), the kon stood at 129000 M⁻¹ s⁻¹. This molecule yielded a kd (SPR conditions as E1) of 0.00836 s⁻¹.

With `CC(C)C[C@@H]1NC(=O)[C@H]([C@@H](C)O)NC(=O)[C@H](CCCCN)NC(=O)[C@H](C)NC(=O)[C@H](Cc2c[nH]c3ccccc23)NC(=O)[C@H](CCCCN)NC(=O)[C@H](C)NC(=O)[C@H](C(C)C)NC(=O)[C@H](CC(N)=O)NC(=O)[C@H]([C@@H](C)O)NC(=O)[C@H](Cc2c[nH]c3ccccc23)NC(=O)[C@H](CC(N)=O)NC(=O)[C@H](Cc2ccc(O)cc2)NC(=O)[C@H](Cc2ccc(O)cc2)NC(=O)[C@H](Cc2ccccc2)NC(=O)[C@H](Cc2ccc(O)cc2)NC(=O)CSC[C@@H](C(=O)NCC(N)=O)NC1=O` [6-2] ({CH2CO}-YFYYNWTNVAKWAKTLCG-NH2; thioether N-17), the kon amounted to 72500 M⁻¹ s⁻¹. Under “SPR conditions as E1”, the “ka” value is 0.725 × 10^5 M^–1 s^–1, the kd came to 0.0074 s⁻¹ and the “kd (quoted in text)” value was 7.4 × 10^–3 s^–1. Moreover, the “fold slower kd compared to 6–1” value (ratio of SPR kd values) worked out at 7 fold.
